Like-named read-outs stand apart in the source and are kept apart here.
How the values were obtained:
[1] = target: T1, serotoninergic receptors of type 5-HT1A (Rattus norvegicus, UniProt P19327); assay: 5-HT syndrome (flat body posture, lower-lip retraction, fore-paw treading); type: in vivo; details: ip, male Sprague-Dawley rat, i.p.
T1 construct: carried out on the male rat (Sprague-Dawley); from tissue; host or cells: whole living male Sprague-Dawley rat (in vivo test)
T1 sequence (P19327 1-422): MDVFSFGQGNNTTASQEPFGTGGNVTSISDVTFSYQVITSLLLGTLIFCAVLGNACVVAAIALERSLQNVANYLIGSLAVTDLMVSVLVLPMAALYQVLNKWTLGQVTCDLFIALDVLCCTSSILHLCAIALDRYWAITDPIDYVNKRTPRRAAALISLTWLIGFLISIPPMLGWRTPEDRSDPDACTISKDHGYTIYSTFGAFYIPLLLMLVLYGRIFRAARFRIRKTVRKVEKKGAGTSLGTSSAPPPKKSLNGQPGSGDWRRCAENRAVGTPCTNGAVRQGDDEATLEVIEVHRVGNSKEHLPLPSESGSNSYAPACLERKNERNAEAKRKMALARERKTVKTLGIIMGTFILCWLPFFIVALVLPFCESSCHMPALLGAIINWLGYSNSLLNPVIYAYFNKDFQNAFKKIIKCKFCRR
Procedure: The experiments of the evaluation of the 5-HT syndrome are carried out on the male rat (Sprague-Dawley) by the method described by F. C. Colpaert et al. (Drug. Dev. Res. 26:21-48, 1992).

[2] = target: T2, 5-HT1A receptor (Rattus norvegicus, UniProt P19327); assay: Affinity for the receptor 5-HT1A: displacement of [3H]8-OH-DPAT in rat cerebral cortex; type: binding; details: [3H]8-OH-DPAT 0.2 nM, 23° C., 30 minutes, average of 3 to 5 experiments, read-out: pKi (affinity for the receptor 5-HT1A) (converted)
T2 construct: The brain is dissected and the cortex is homogenized in 20 volumes of Tris-HCl buffer; from tissue; host or cells: rat cerebral cortex homogenate
T2 sequence (P19327 1-422): T1 sequence (P19327 1-422)
Procedure: Thus, they were the object of a study relating to their affinity for serotoninergic receptors such as 5-HT1A.
The study of the bonding to the receptor 5-HT1A is carried out in the manner described by Sleight and Peroutka (Naunyn-Schmiedebergs Arch. Pharmacol. 343:106-116, 1991). For these experiments, rat cerebral cortices are used. The brain is dissected and the cortex is homogenized in 20 volumes of Tris-HCl buffer (50 mM, pH 7.4 at 25° C.) kept at 4° C. The homogenate is centrifuged at 39000 g for 10 minutes, the final product is suspended in the same volume of buffer and centrifuged again. After being again placed in suspension under the same conditions, the homogenate is incubated for 10 minutes at 37° C. and then centrifuged again. The final product is suspended in 80 volumes of reaction buffer containing pargyline (10^- 5M), CaCl2 (4 mM) and ascorbic acid (0.1%) in Tris-HCl (50 mM, pH 7.4 at 25° C.). The final concentration of tissue in the incubation medium is 10 mg/tube.
In the saturation experiments, the reaction tubes contain 0.1 ml of different concentrations of [^3 H]8--OH--DPAT (between 0.06 and 8 nM), 0.1 ml of reaction buffer 5-HT (10^-5 M, in order to determine the non-specific bond) and 0.8 ml of tissue.
The displacement experiments are carried out in the manner described by Sleight and Peroutka (Naunyn-Schmiedebergs Arch. Pharmacol. 343:106-116, 1991). All the dilutions of products to be studied are prepared in the reaction buffer. The reaction tubes contain 0.1 ml of [^3 H]8-OH-DPAT (0.2 nM), 0.1 ml of product to be tested 6-7 concentrations (successive dilutions to 1/10) and 0.8 ml of tissue. […] The radioactivity collected on the filter is analyzed in liquid scintillation by adding 4 ml of scintillating liquid (Emulsifier Safe, Packard). All the experiments are carried out in triplicate and repeated at least 3 times.
The dissociation constant (KD) and the maximum number of bond sites (Bmax) for the radioligand are estimated on the basis of the saturation experiments using the non-linear regression program EBDA/LIGAND (Biosoft) (Munson and Rodbard: Anal. Biochem. 107:220-239, 1980). The affinity constants (Ki) of the reference products are estimated on the basis of the displacement experiments using the EBDA/LIGAND non-linear regression program. […] The data of the displacement experiments are analyzed with the one-site and two-site models respectively and the calculated F makes it possible to determine whether the two-site model is more representative of the data obtained than the one-site model. The values of pKi are given in the form of the average ±SEM of 3 to 5 experiments.

[3] = FBP, read-out: ED50 FBP (flat body posture)
[4] = FPT, read-out: ED50 FPT (reciprocal fore-paw treading)
[5] = LLR, read-out: ED50 LLR (lower-lip retraction)

Row | ED50 [1, 3] [mg/kg] | ED50 [1, 4] [mg/kg] | ED50 [1, 5] [mg/kg] | Ki [2] [nM] | SMILES
1 | – | – | – | 12.6 | CCCCn1c(=O)[nH]nc(NCCCCN2CCN(c3cccc(C(F)(F)F)c3)CC2)c1=O [Compound 11, 4-butyl-3,5-dioxo-(2H, 4H)-6-(4-(4-(3-trifluoromethylphenyl)piperazino)butylamino)-1,2,4-triazine]
2 | – | – | – | 16.2 | Cn1nc(NCCCN2CCN(c3cccc(C(F)(F)F)c3)CC2)c(=O)n(C)c1=O [Compound 6, 2,4-dimethyl-3,5-dioxo-(2H,4H)-6-(3-(4-(3-trifluoromethylphenyl)piperazino)propylamino)-1,2,4-triazine]
3 | 0.31 | 40 | 0.31 | 0.398 | Cn1nc(NCCCCN2CCN(c3cccc(Cl)c3)CC2)c(=O)n(C)c1=O [Compound 2, 2,4-dimethyl-3,5-dioxo-(2H,4H)-6-(4(4-(3-chlorophenyl)piperazino)butylamino)-1,2,4-triazine]
4 | – | – | – | 3.8 | Cn1nc(NCCCNCC2COc3ccccc3O2)c(=O)n(C)c1=O (stereo not shown) [Compound 10, 2,4-dimethyl-3,5-dioxo-(2H, 4H)-6-(3-(1,4-benzodioxan-2 ylmethylamino)propylamino)-1,2,4-triazine]
5 | – | – | – | 2.69 | Cn1nc(NCCCCNCC2COc3ccccc3O2)c(=O)n(C)c1=O (stereo not shown) [Compound 9, 2,4-dimethyl-3,5-dioxo-(2H,4H)-6-(4-(1,4-benzodioxan-2 ylmethylamino)butylamino)-1,2,4-triazine]
6 | 0.31 | 0.31 | 0.31 | 0.316 | Cn1nc(NCCCCN2CCN(c3cccc(C(F)(F)F)c3)CC2)c(=O)n(C)c1=O [Compound 1, 2,4-dimethyl-3,5-dioxo-(2H, 4H)-6-(4-(4-(3-trifluoromethylphenyl)piperazino)butylamino)-1,2,4-triazine]
7 | – | – | – | 0.617 | COc1ccccc1N1CCN(CCCCNc2nn(C)c(=O)n(C)c2=O)CC1 [Compound 3, 2,4-dimethyl-3,5-dioxo-(2H,4H)-6-(4-(4-(2-methoxyphenyl)piperazino)butylamino)-1,2,4-triazine]

Row | SMILES | ED50 [1, 3] [mg/kg] | ED50 [1, 4] [mg/kg] | ED50 [1, 5] [mg/kg] | Ki [2] [nM]
8 | O=C1CC2(CCCC2)CC(=O)N1CCCCN1CCN(c2ncccn2)CC1 [Buspirone, reference compound] | 5 | > 40 | 1.25 | –

Reference: patent publication US5591743A, “3,5-dioxo-(2H,4H)-1,2,4-triazine derivatives as 5HT1A ligands” (Pierre Fabre Medicament, priority 1993, dated 1997)
